One data set has as its system THP-1 macrophages. The experiment in a line: Effect of compounds on host cell viability (MTT). In kind it is cell-based. The conditions noted are these: read-out: 24h LC50; THP1 macrophages, 24-hour incubation, MTT assay (Supplemental Table 2). How it is done:
The cells were cultured at 37C, 5% CO2 in RPMI medium (ATCC) supplemented with 10% FBS, 1% Penicillin/Streptomycin and 0.05 mM of β-mercaptoethanol. Cells were used in experiments up to passage 10.
Effect of the compounds on THP-1 cell viability measured using thiazolyl blue tetrazolium bromide which measures cell metabolic activity (MTT). THP-1 cells were seeded in a 96 well plate (25,000 cells/well) overnight then differentiated with 150 nM phorbol 12-myristate 13-acetate (PMA) over 72 hours. Macrophages were then treated with compounds resuspended in RPMI media (1- 50 μM) for 24 hours. Media was replaced with thiazolyl blue tetrazolium bromide solubilized in RPMI media (0.5 mg/mL) and incubated at 37°C for 2 hours. The reduced formazan crystals were solubilized with isopropyl alcohol and the absorbance of the resulting solution was measured at 560 nm with a background subtraction at 670 nm. […] This process was repeated with a 72-hr incubation and extended concentration range (1 - 300 μM) for select compounds.
A general note: Tetrazolium assays rely on reduction of a dye to a coloured formazan, in cell work by metabolically active cells.

Data set [1] concerns intracellular L. donovani amastigotes. The experiment in a line: Luminescent-based evaluation of intracellular anti-leishmanial activity in THP-1 macrophages. In kind it is cell-based, Leishmania donovani. The conditions noted are these: intracellular Leishmania donovani in THP1 macrophages, luminescence assay (Supplemental Table 2); read-out: Lum IC50. How it is done:
Luminescent strains, L. donovani LV82 expressing firefly luciferase (a kind gift from Dr. Abhay Satoskar, Ohio State University) and L. mexicana (NR-51210, ATCC) expressing renilla luciferase were used to evaluate the effect of the compounds in intracellular and extracellular conditions. Wild-type L. donovani LV82 (ATCC) were used for Giemsa staining based experiments. All parasites were cultured at 25°C and 5% CO2 in M199 media (Corning) supplemented with 10% FBS, 1% penicillin/streptomycin, and hemin (0.01 mg/mL), and used in experiments up to passage 15.
THP-1 cells were seeded in a 96 well plate (25,000 cells/well) overnight then differentiated with 150 nM phorbol 12-myristate 13-acetate (PMA) over 72 hours (Supplemental Figure 1). […] Briefly, promastigotes of a known cell density were resuspended in RPMI media (with 10% FBS, 1% P/S and 0.05 mM β-mercaptoethanol) and incubated with adhered THP-1 cells over 18 hours. After infection, cells were washed three times with fresh media to remove extracellular promastigotes.
Infected macrophages were then treated with compounds solubilized in DMSO ranging from 0.1-10 μM in concentrations. After 72 hours of treatment, the viability of the amastigotes within macrophages was determined using Promega firefly luminescence assay (Cat E1500) or Pierce Renilla luciferase assay (Cat 16166) for L. donovani and L. mexicana strains, respectively. Briefly, media was removed, and cells were lysed with the assay lysis buffer. The luciferase substrate was then incubated with the lysed cells for 10 min at room temperature and luminescence of live Leishmania was measured in a white opaque 96 well plate using a Biotek plate reader.

Regarding `COc1ccc(-n2nc(C(F)(F)F)cc2-c2ccc(-c3ccc(C(F)(F)F)cc3)cc2)c(C)c1` [Compound 187], the CC50 with THP-1 macrophages is more than 50 µM. The IC50 in data set [1] was more than 10 µM.
`NC1CCN(C(=O)c2ccc(-n3cc(C(F)(F)F)nc3-c3ccc(-c4ccc(C(F)(F)F)cc4)cc3)c(F)c2)C1` (stereo not shown) [Compound 199]: the CC50 with THP-1 macrophages amounted to 9.4 µM. Further, the IC50 in data set [1] stood at 1.3 µM.
For the compound `FC(F)(F)c1cc(C2CCCCC2)n(-c2ccc(NC3CCNC3)cc2)n1` (stereo not shown) [Compound 312], in the data set with THP-1 macrophages, the CC50 was determined as 25.5 µM. Also, in data set [1], the IC50 is 4.8 µM.
The matching figures for `O=[N+]([O-])c1cccc(-n2nc(C(F)(F)F)cc2-c2ccc(-c3ccc(C(F)(F)F)cc3)cc2)c1` [Compound 189]: more than 50 µM and more than 10 µM.
Taken in the same sequence, the figures for `NCCCCCN1CCC(Oc2ccc(-n3nc(C(F)(F)F)cc3C3CCCCC3)cc2)CC1` [Compound 422] were 6.1 µM and 2.5 µM.
Taken in the same sequence, the figures for `NC1CN(c2ccc(-n3nc(C(F)(F)F)cc3-c3ccc(-c4ccc(C(F)(F)F)cc4)cc3)cc2)C1` [Compound 172] were more than 50 µM and more than 10 µM.
Turning to `FC(F)(F)c1cc(-c2ccc(-c3ccc(S(F)(F)(F)(F)F)cc3)cc2)n(-c2ccc(Br)cc2)n1` [Compound 105], the CC50 in the data set on THP-1 macrophages is more than 50 µM. The IC50 in data set [1] is more than 10 µM.
Taken in the same sequence, the figures for `NC1CCN(c2ccc(-n3nc(C(F)(F)F)cc3-c3ccc(-c4ccc(C(F)(F)F)cc4)cc3)cc2)CC1` [Compound 73] were 4.8 µM and 2.7 µM.
Taken in the same sequence, the figures for `Nc1ccc(-n2cc(C(F)(F)F)nc2-c2ccc(Br)cc2)cc1` [Compound 193] were more than 50 µM and more than 10 µM.
Taken in the same sequence, the figures for `Nc1ccc(-n2cnc3ccccc32)cc1` [Compound 147] were more than 50 µM and more than 10 µM.
As to `O=[N+]([O-])c1ccc(-n2cnc3cc(Br)ccc32)cc1` [Compound 139], the CC50 in the data set on THP-1 macrophages was more than 50 µM. The 50% inhibitory concentration (IC50) in data set [1] is more than 10 µM.
As to `FC(F)(F)c1cc(-c2ccc(Cl)c(Cl)c2)n(-c2ccc(Br)cc2)n1` [Compound 198], the CC50 in the data set on THP-1 macrophages was more than 50 µM. Besides, the IC50 in data set [1] was more than 10 µM.
The matching figures for `FC(F)(F)c1ccc(-c2ccc3ncn(-c4ccc(Br)cc4)c3c2)cc1` [Compound 136]: more than 50 µM and more than 10 µM.
The matching figures for `FC(F)(F)c1ccc(-c2cc(C(F)(F)F)nn2-c2ccc(NC3CCNC3)cc2)cc1` (stereo not shown) [Compound 252]: 14.4 µM and 2.3 µM.
Taken in the same sequence, the figures for `FC(F)(F)c1cc(-c2ccc(-c3cccs3)cc2)n(-c2ccc(N3CCNCC3)cc2)n1` [Compound 209] were 10.2 µM and 3 µM.
Regarding `FC(F)(F)c1cn(-c2ccc(OC3CCNC3)cc2)c(-c2ccc(-c3ccccc3)cc2)n1` (stereo not shown) [Compound 328], the CC50 with THP-1 macrophages came out at 11.1 µM. For the same compound, the IC50 in data set [1] was determined as 2.6 µM.
The matching figures for `O=C(CNCc1ccc(O)cc1)Nc1ccc(-n2nc(C(F)(F)F)cc2C2CCCCC2)cc1` [Compound 355]: 21.2 µM and 2 µM.
Consider `N#Cc1ccc(-n2cc(C(F)(F)F)cc2-c2ccc(-c3ccc(C(F)(F)F)cc3)cc2)cc1` [Compound 205], for which the CC50 in the data set with THP-1 macrophages is more than 50 µM. Further, in data set [1], the IC50 is more than 10 µM.
The matching figures for `FC(F)(F)c1cc(C2CCCCC2)n(-c2ccc(OC3CCNCC3)cc2)n1` [Compound 370]: 19.5 µM and 2.6 µM.
The matching figures for `FC(F)(F)c1cc(-c2ccc(-c3ccccc3)cc2)n(-c2ccc(NCCc3ccccc3)cc2)n1` [Compound 62]: more than 50 µM and more than 10 µM.
The matching figures for `O=[N+]([O-])c1ccc(-n2nc(C(F)(F)F)cc2-c2ccc(-c3ccc(S(F)(F)(F)(F)F)cc3)cc2)cc1` [Compound 103]: more than 50 µM and more than 10 µM.
`O=C(c1ccc(-n2cc(C(F)(F)F)nc2-c2ccc(-c3ccc(C(F)(F)F)cc3)cc2)c(F)c1)N1CCC(NCc2cccc(F)c2)C1` (stereo not shown) [Compound 178]: in the data set on THP-1 macrophages, the CC50 is more than 50 µM. Besides, the half-inhibitory concentration (IC50) in data set [1] was more than 10 µM.
Taken in the same sequence, the figures for `NCCCOc1ccc(CN2CCC(Oc3ccc(-n4nc(C(F)(F)F)cc4C4CCCCC4)cc3)CC2)cc1` [Compound 429] were 12.1 µM and 2.4 µM.
The matching figures for `CC(=O)NCCCNC1CCN(c2ccc(-n3nc(C(F)(F)F)cc3C3CCCCC3)cc2)CC1` [Compound 421]: 19 µM and 1.5 µM.
As for `CNS(=O)(=O)Cc1ccc(-n2nc(C(F)(F)F)cc2-c2ccc(-c3ccc(C(F)(F)F)cc3)cc2)cc1` [Compound 191], in the data set with THP-1 macrophages, the CC50 is 12 µM. Further, in data set [1], the IC50 is more than 10 µM.
Taken in the same sequence, the figures for `CC(C)C#Cc1ccc(-c2cc(C(F)(F)F)nn2-c2ccc(N3CCC(NCc4cccc(F)c4)C3)cc2)cc1` (stereo not shown) [Compound 100] were more than 50 µM and more than 10 µM.
In the case of `FC(F)(F)c1cc(C2CCCCC2)n(-c2ccc(N3CCC(NCc4ccccc4)CC3)cc2)n1` [Compound 336], the CC50 in the data set with THP-1 macrophages is 15.9 µM. For the same compound, the half-maximal inhibitory concentration (IC50) in data set [1] stood at 2.4 µM.
In the case of `O=C(Nc1ccc(-n2cc(C(F)(F)F)nc2-c2ccc(-c3ccccc3)cc2)cc1)c1ccccc1` [Compound 88], the CC50 with THP-1 macrophages is more than 50 µM. The IC50 in data set [1] was more than 10 µM.
Taken in the same sequence, the figures for `NCCCCN1CCC(Oc2ccc(-n3nc(C(F)(F)F)cc3C3CCCCC3)cc2)CC1` [Compound 424] were 6.5 µM and 2.4 µM.
The matching figures for `COc1ccc(-c2cc(C(F)(F)F)nn2-c2ccc(NC3CCNC3)cc2)cc1OC` (stereo not shown) [Compound 260]: 13.9 µM and 4.3 µM.
With `FC(F)(F)c1cc(-c2ccc(C3CC3)cc2)n(-c2ccc(N3CCNCC3)cc2)n1` [Compound 211], the CC50 with THP-1 macrophages was 13.2 µM. For the same compound, the IC50 in data set [1] was determined as 2.1 µM.
The matching figures for `FC(F)(F)c1cc(C2CCCCC2)n(-c2ccc(NC3CCN(Cc4ccccc4)C3)cc2)n1` (stereo not shown) [Compound 356]: 15.5 µM and 2 µM.
The matching figures for `FC(F)(F)c1ccc(-c2ccc(-c3cc(C(F)(F)F)nn3-c3ccc(OC4CCNCC4)cc3)cc2)cc1` [Compound 34]: more than 50 µM and 6 µM.
Consider `Oc1ccc(CN2CCC(Oc3ccc(-n4nc(C(F)(F)F)cc4C4CCCCC4)cc3)C2)cc1` (stereo not shown) [Compound 377], for which the CC50 in the data set with THP-1 macrophages was found to be 14.6 µM. The IC50 in data set [1] came out at 8.3 µM.
In the case of `FC(F)(F)c1ccc(-c2ccc(-c3cc(C(F)(F)F)nn3-c3ccc(OC4CCNC4)cc3)cc2)cc1` (stereo not shown) [Compound 144], the CC50 in the data set on THP-1 macrophages was found to be 5.4 µM. For the same compound, the IC50 in data set [1] is more than 10 µM.
The matching figures for `Nc1ccc(-c2cc(C(F)(F)F)nn2-c2ccc(-c3ccc(C(F)(F)F)cc3)cc2)cc1` [Compound 152]: 43.6 µM and more than 10 µM.
Turning to `FC(F)(F)c1cn(-c2ccc(NCc3ccccc3)cc2)c(-c2ccc(-c3ccccc3)cc2)n1` [Compound 87], the CC50 with THP-1 macrophages is more than 50 µM. Further, the IC50 in data set [1] was found to be 6.7 µM.
Taken in the same sequence, the figures for `FC(F)(F)c1ccc(-c2ccc(-c3cc(C(F)(F)F)nn3-c3ccc(N4CCC(NC5CCCCCC5)C4)cc3)cc2)cc1` (stereo not shown) [Compound 69] were 12.4 µM and 5.5 µM.
The matching figures for `CC(=O)NCCNC1CCN(c2ccc(-n3nc(C(F)(F)F)cc3C3CCCCC3)cc2)CC1` [Compound 419]: 21.6 µM and 2.7 µM.
Taken in the same sequence, the figures for `FC(F)(F)c1ccc(-c2ccc(-c3cc(C(F)(F)F)nn3-c3ccc(N4CCC(NCc5ccccc5)CC4)cc3)cc2)cc1` [Compound 89] were 8 µM and 4 µM.
With `FC(F)(F)c1cn(-c2ccc(Br)cc2)c(-c2ccc(-c3ccccc3)cc2)n1` [Compound 81], the CC50 in the data set on THP-1 macrophages was more than 50 µM. Moreover, in data set [1], the IC50 was more than 10 µM.
The matching figures for `O=C(C1CCCCC1)N1CC(Nc2ccc(-n3nc(C(F)(F)F)cc3-c3ccc(-c4ccc(C(F)(F)F)cc4)cc3)cc2)C1` [Compound 71]: 8.4 µM and more than 10 µM.
Turning to `CCCNC1CN(c2ccc(-n3nc(C(F)(F)F)cc3-c3ccc(-c4ccc(C(F)(F)F)cc4)cc3)cc2)C1` [Compound 54], the CC50 in the data set with THP-1 macrophages turned out to be 9.9 µM. In addition, the IC50 in data set [1] was 2.4 µM.
The matching figures for `FC(F)(F)c1cc(-c2ccc(Cl)cc2)n(-c2ccc(Br)cc2)n1` [Compound 194]: more than 50 µM and more than 10 µM.

What is called IC50 is the concentration at which inhibition is half-maximal.

(Values after publication doi:10.1101/2025.11.04.686469, “Discovery of Host-Directed Small Molecules with Broad Anti-Leishmanial Efficacy” (bioRxiv, 2025).)
